The test system of the test is C57BL/6 mice. The test is described as follows: animal or person. The class given is in vivo. The following applies: Mus musculus, sc, 0.5 h, s.c. administration, 30 min, 55° C. water, read-out: ED50 (mg/kg) at 30 min on C57BL/6 mice in Warm-water Tail-flick Test. In general terms: Hot-plate and tail-flick tests time the reaction to a heat stimulus.
In the case of `CCOC[C@@]1(CCc2nccc(OC)n2)CCN(C(C)(C)c2ccc(C)nc2)C1.Cl` [Compound 377, (S)-2-(2-(3-(ethoxymethyl)-1-(2-(6-methylpyridin-3-yl)propan-2-yl)pyrrolidin-3-yl)ethyl)-4-methoxypyrimidine HCl], the ED50 is below 10 mg/kg.

As to `CCOC[C@@]1(CCc2cccs2)CCN(C(C)c2cnn(C)c2C)C1` (stereo partly drawn) [Compound 378, 4-(1-((S)-3-(ethoxymethyl)-3-(2-(thiophen-2-yl)ethyl)pyrrolidin-1-yl)ethyl)-1,5-dimethyl-1H-pyrazole], the ED50 is below 10 mg/kg.

`CCOC[C@@]1(CCc2cccs2)CCN(C2(c3ccc(C)nc3)CC2)C1` [Compound 379, (S)-5-(1-(3-(ethoxymethyl)-3-(2-(thiophen-2-yl)ethyl)pyrrolidin-1-yl)cyclopropyl)-2-methylpyridine]: the ED50 was below 10 mg/kg.

For the molecule `CCOC[C@@]1(CCc2ccc(F)cn2)CCN(C(=O)c2ccc(C)nc2)C1` [Compound 380, (S)-(3-(ethoxymethyl)-3-(2-(5-fluoropyridin-2-yl)ethyl)pyrrolidin-1-yl)(6-methylpyridin-3-yl)methanone], the ED50 is above 10 mg/kg.

Consider `COC[C@@]1(CCc2csc(C)c2)CCN(C(=O)c2ccc(C)nc2)C1` [Compound 381, (S)-(3-(methoxymethyl)-3-(2-(5-methylthiophen-3-yl)ethyl)pyrrolidin-1-yl)(6-methylpyridin-3-yl)methanone], for which the ED50 was above 10 mg/kg.

For `CCOC[C@@]1(CCc2nncn2C)CCN(C(=O)c2ccc(C)nc2)C1` [Compound 382], the ED50 was above 10 mg/kg.

On to `COC[C@@]1(CCc2csc(C)c2)CCN(C(C)(C)c2ccc(C)nc2)C1` [Compound 383, (S)-5-(2-(3-(methoxymethyl)-3-(2-(5-methylthiophen-3-yl)ethyl)pyrrolidin-1-yl)propan-2-yl)-2-methylpyridine], for which the ED50 was below 10 mg/kg.

Turning to `CCOC[C@@]1(CCc2ccsc2)CCN(Cc2cnn(C)c2)C1.Cl` [Compound 384, (S)-4-((3-(ethoxymethyl)-3-(2-(thiophen-3-yl)ethyl)pyrrolidin-1-yl)methyl)-1-methyl-1H-pyrazole HCl], the ED50 is below 10 mg/kg.

For `CCOC[C@@]1(CCc2cscc2C)CCN(Cc2cccnc2)C1` [Compound 385, (S)-3-((3-(ethoxymethyl)-3-(2-(4-methylthiophen-3-yl)ethyl)pyrrolidin-1-yl)methyl)pyridine], the ED50 was below 10 mg/kg.

For the molecule `CCOC[C@@]1(CCc2cccs2)CCN(C(C)(C)c2cnn(C)c2)C1.Cl` [Compound 386, (S)-4-(2-(3-(ethoxymethyl)-3-(2-(thiophen-2-yl)ethyl)pyrrolidin-1-yl)propan-2-yl)-1-methyl-1H-pyrazole HCl], the ED50 is below 10 mg/kg.

Turning to `CCOC[C@@]1(CCc2ccsc2)CCN(C(C)c2cccnc2)C1` (stereo partly drawn) [Compound 387, 3-(1-((S)-3-(ethoxymethyl)-3-(2-(thiophen-3-yl)ethyl)pyrrolidin-1-yl)ethyl)pyridine], the ED50 was below 10 mg/kg.

Turning to `CC(C)OC[C@@]1(CCc2cccs2)CCN(Cc2cccnc2)C1` [Compound 388, (S)-3-((3-(isopropoxy-methyl)-3-(2-(thiophen-2-yl)ethyl)pyrrolidin-1-yl)methyl)pyridine], the ED50 was below 10 mg/kg.

Take `COC[C@@]1(CCc2cccs2)CCN(Cc2cccnc2)C1` [Compound 389, (S)-3-((3-(methoxymethyl)-3-(2-(thiophen-2-yl)ethyl)pyrrolidin-1-yl)methyl)pyridine]: the ED50 is below 10 mg/kg.

Consider `c1ccc(C2(CCc3cccs3)CCN(Cc3cccnc3)C2)nc1` (stereo not drawn) [Compound 390, 2-(1-(pyridin-3-ylmethyl)-3-(2-(thiophen-2-yl)ethyl)pyrrolidin-3-yl)pyridine], for which the ED50 was above 10 mg/kg.

Consider `Cc1ccc(CN2CC[C@@](CCc3ccsc3)(C3CCCO3)C2)cn1.Cl` (stereo partly drawn) [Compound 391, 2-methyl-5-(((3R)-3-(tetrahydrofuran-2-yl)-3-(2-(thiophen-3-yl)ethyl)pyrrolidin-1-yl)methyl)pyridine HCl], for which the ED50 is below 10 mg/kg.

On to `FC(F)OC[C@@]1(CCc2cccs2)CCN(Cc2cccnc2)C1` [Compound 392, (S)-3-((3-((difluorometh-oxy)methyl)-3-(2-(thiophen-2-yl)ethyl)pyrrolidin-1-yl)methyl)pyridine], for which the ED50 is below 10 mg/kg.

Regarding `CCOC1(CCc2cccs2)CCN(Cc2cccnc2)C1` (stereo not drawn) [Compound 393, 3-((3-ethoxy-3-(2-(thiophen-2-yl)ethyl)pyrrolidin-1-yl)methyl)pyridine], the ED50 is above 10 mg/kg.

Consider `CCOCC1(CCc2cccs2)CN(Cc2cccnc2)C1` [Compound 394, 3-((3-(ethoxymethyl)-3-(2-(thiophen-2-yl)ethyl)azetidin-1-yl)methyl)pyridine], for which the ED50 was above 10 mg/kg.

As for `CCOC[C@@]1(CCc2cccs2)CCN(C2(c3cccnc3)CC2)C1` [Compound 395, (S)-3-(1-(3-(ethoxymethyl)-3-(2-(thiophen-2-yl)ethyl)pyrrolidin-1-yl)cyclopropyl)pyridine], the ED50 is below 10 mg/kg.

As for `CC(C)(c1cccnc1)N1CCC(CCc2cccs2)(c2ccccn2)CC1` [Compound 396, 2-(1-(2-(pyridin-3-yl)propan-2-yl)-4-(2-(thiophen-2-yl)ethyl)piperidin-4-yl)pyridine], the ED50 is below 10 mg/kg.

As for `Cc1ccc(CN2C3CCC2CC(CCc2cccs2)(c2ccccn2)C3)cn1` (stereo not drawn) [Compound 397, 8-((6-methylpyridin-3-yl)methyl)-3-(pyridin-2-yl)-3-(2-(thiophen-2-yl)ethyl)-8-azabicyclo[3.2.1]octane], the ED50 was above 10 mg/kg.

`CCOC[C@@]1(CCc2ccc(F)cn2)CCN(C2(c3cnc4c(c3)CCCC4)CC2)C1` [Compound 398, (S)-3-(1-(3-(ethoxymethyl)-3-(2-(5-fluoropyridin-2-yl)ethyl)pyrrolidin-1-yl)cyclopropyl)-5,6,7,8-tetrahydroquinoline]: the ED50 is below 10 mg/kg.

For the molecule `CCOCC1(CCc2ccccc2)CCN(C(CC)(CC)c2ccc(C)nc2)CC1` [Compound 399, 5-(3-(4-(ethoxymethyl)-4-phenethylpiperidin-1-yl)pentan-3-yl)-2-methylpyridine], the ED50 was above 10 mg/kg.

Turning to `CCOCC1(CCc2ccccc2)CCN(C(CC)c2cnc(C)cc2CC)CC1` (stereo not drawn) [Compound 400, 5-(1-(4-(ethoxymethyl)-4-phenethylpiperidin-1-yl)propyl)-4-ethyl-2-methylpyridine], the ED50 is below 10 mg/kg.

As for `CCOC(C)(C)[C@@]1(CCc2cccs2)CCN(C(C)(C)c2ccc(C)nc2)C1` [Compound 402, (S)-5-(2-(3-(2-ethoxypropan-2-yl)-3-(2-(thiophen-2-yl)ethyl)pyrrolidin-1-yl)propan-2-yl)-2-methylpyridine], the ED50 is below 10 mg/kg.

Regarding `CCOC(C)(C)[C@@]1(CCc2cccs2)CCN(C(C)c2ccc(C)nc2C)C1` (stereo partly drawn) [Compound 403, 3-(1-((S)-3-(2-ethoxypropan-2-yl)-3-(2-(thiophen-2-yl)ethyl)pyrrolidin-1-yl)ethyl)-2,6-dimethylpyridine], the ED50 is below 10 mg/kg.

On to `CCOC[C@@]1(CCc2cccs2)CCN(Cc2c(C)ccnc2C)C1` [Compound 404, (S)-3-((3-(ethoxymethyl)-3-(2-(thiophen-2-yl)ethyl)pyrrolidin-1-yl)methyl)-2,4-dimethylpyridine], for which the ED50 is below 10 mg/kg.

In the case of `CCOC[C@@]1(CCc2cccs2)CCN(Cc2cccnn2)C1` [Compound 405, (S)-3-((3-(ethoxymethyl)-3-(2-(thiophen-2-yl)ethyl)pyrrolidin-1-yl)methyl)pyridazine], the ED50 was above 10 mg/kg.

With `CCOC[C@@]1(CCc2cccnn2)CCN(Cc2cccnc2)C1` [Compound 406, (S)-3-(2-(3-(ethoxymethyl)-1-(pyridin-3-ylmethyl)pyrrolidin-3-yl)ethyl)pyridazine], the ED50 was above 10 mg/kg.

For `CCOC[C@@]1(CCc2ccc(C)s2)CCN(Cc2cnn(C)c2)C1` [Compound 407, (S)-4-((3-(ethoxymethyl)-3-(2-(5-methylthiophen-2-yl)ethyl)pyrrolidin-1-yl)methyl)-1-methyl-1H-pyrazole], the ED50 was below 10 mg/kg.

Regarding `CCOC[C@@]1(CCc2ccc(C)s2)CCN(Cc2ccc(C)nc2)C1` [Compound 408, (S)-5-((3-(ethoxymethyl)-3-(2-(5-methylthiophen-2-yl)ethyl)pyrrolidin-1-yl)methyl)-2-methylpyridine], the ED50 is below 10 mg/kg.

In the case of `CCOC[C@@]1(CCc2ccc(C)s2)CCN(Cc2ccc(C)nc2C)C1` [Compound 409, (S)-3-((3-(ethoxymethyl)-3-(2-(5-methylthiophen-2-yl)ethyl)pyrrolidin-1-yl)methyl)-2,6-dimethylpyridine], the ED50 is below 10 mg/kg.

In the case of `c1ccc(C2(CCc3cccs3)CCN(Cc3cccnc3)CC2)nc1` [Compound 410, 2-(1-(pyridin-3-ylmethyl)-4-(2-(thiophen-2-yl)ethyl)piperidin-4-yl)pyridine], the ED50 was below 10 mg/kg.

In the case of `Cc1ccc(C(C)(C)N2CC[C@@](CO)(CCc3cccs3)C2)cn1` [Compound 411, (S)-(1-(2-(6-methylpyridin-3-yl)propan-2-yl)-3-(2-(thiophen-2-yl)ethyl)pyrrolidin-3-yl)methanol], the ED50 is below 10 mg/kg.

For `OC[C@@]1(CCc2cccs2)CCN(Cc2cccnc2)C1` [Compound 412, (S)-(1-(pyridin-3-ylmethyl)-3-(2-(thiophen-2-yl)ethyl)pyrrolidin-3-yl)methanol], the ED50 was below 10 mg/kg.

Consider `Cc1ccc(CN2CC[C@@](CO)(CCc3cccs3)C2)cn1` [Compound 413, (S)-(1-((6-methylpyridin-3-yl)methyl)-3-(2-(thiophen-2-yl)ethyl)pyrrolidin-3-yl)methanol], for which the ED50 was below 10 mg/kg.

Take `CC(c1cccnc1)N1CC[C@@](CO)(CCc2cccs2)C1` (stereo partly drawn) [Compound 414, ((3S)-1-(1-(pyridin-3-yl)ethyl)-3-(2-(thiophen-2-yl)ethyl)pyrrolidin-3-yl)methanol]: the ED50 was below 10 mg/kg.

As for `CC(C)(c1cccnc1)N1CC[C@@](CO)(CCc2cccs2)C1` [Compound 415], the ED50 was below 10 mg/kg.

For `CCOC[C@@]1(CCc2cccs2)CCN(Cc2c(C)cc(C)nc2C)C1` [Compound 416, (S)-3-((3-(ethoxymethyl)-3-(2-(thiophen-2-yl)ethyl)pyrrolidin-1-yl)methyl)-2,4,6-trimethylpyridine], the ED50 is below 10 mg/kg.

(Values after patent US11584765B2 (priority 2017, dated 2023).)
